Values of other authors in patent US7235267B1, “Brain cell or nerve cell-protecting agents comprising medicinal ginseng” (priority 1999, dated 2007).
Read-outs that look alike come from different tables or passages of the source.

Test system: gerbils with transient forebrain ischemia (hippocampal CA1 neurons)
Conditions: cited from earlier work

## CC(C)=CCC[C@](C)(O[C@@H]1O[C@H](CO[C@@H]2O[C@H](CO)[C@@H](O)[C@H](O)[C@H]2O)[C@@H](O)[C@H](O)[C@H]1O)[C@H]1CC[C@]2(C)[C@@H]1[C@H](O)C[C@@H]1[C@@]3(C)CC[C@H](O[C@@H]4O[C@H](CO)[C@@H](O)[C@H](O)[C@H]4O[C@@H]4O[C@H](CO)[C@@H](O)[C@H](O)[C@H]4O)C(C)(C)[C@@H]3CC[C@]12C [ginsenoside Rb1]
Intracerebroventricular infusion immediately after 3 or 3.5 minute occlusion
  delayed neuronal death and learning disability: suppressed
Intraperitoneal 10 or 20 mg/kg once a day for one week in advance of 5-minute occlusion
  delayed neuronal death and learning disability: significantly prevent
Intraperitoneal 10 or 20 mg/kg/day before cerebral ischemia
  nerve cells in the hippocampal CA1 area rescued: approximately 30%
Intraperitoneal immediately after 3- or 5-minute occlusion of common carotid arteries
  effect on delayed neuronal death: no effect
